SMILES strings stand for the structures.

In series [1] the test system is HaCaT. The series can be described thus: Cytotoxicity against human HaCaT cells incubated for 72 hrs by MTT assay. It is filed as functional, cell-based.
For series [2], the system named is HepG2. The series can be described thus: Antiproliferative activity against human HepG2 cells assessed as inhibition of cell growth incubated for 48 hrs by MTT assay. It is filed as functional, cell-based. Particulars: HepG2, 48 h.
The subject of series [3] is HeLa. The series can be described thus: Antiproliferative activity against human HeLa cells assessed as inhibition of cell growth incubated for 72 hrs by MTT assay. The series is classed as functional, cell-based.
The subject of series [4] is HCT-116. The series is described as follows: Cytotoxicity against human HCT-116 cells assessed as cell viability measured as mitochondrial NADH-dependent dehydrogenase activity incubated for 72 to 120 hrs. It is filed as functional, cell-based.
The subject of series [5] is MCF7. The series can be described thus: Antiproliferative activity against human MCF-7 cells assessed as inhibition of cell growth incubated for 48 hrs by MTT assay. The series is classed as functional, cell-based. Particulars: MCF7, 48 h.
The test system of series [6] is MCF7. The series is described as follows: Cytotoxicity against human MCF7 cells. The series is classed as functional, cell-based.
In series [7] the test system is MCF7. The series is described as follows: Antiproliferative activity against human MCF-7 cells assessed as cell growth inhibition. The series is classed as functional.
Series [8] has as its system MDA-MB-231. The series is described as follows: Antiproliferative activity against human MDA-MB-231 cells assessed as cell growth inhibition. It is filed as functional.
Series [9] has as its target T1, Estrogen receptor (Homo sapiens, UniProt P03372).
T1 sequence (P03372 whole entry): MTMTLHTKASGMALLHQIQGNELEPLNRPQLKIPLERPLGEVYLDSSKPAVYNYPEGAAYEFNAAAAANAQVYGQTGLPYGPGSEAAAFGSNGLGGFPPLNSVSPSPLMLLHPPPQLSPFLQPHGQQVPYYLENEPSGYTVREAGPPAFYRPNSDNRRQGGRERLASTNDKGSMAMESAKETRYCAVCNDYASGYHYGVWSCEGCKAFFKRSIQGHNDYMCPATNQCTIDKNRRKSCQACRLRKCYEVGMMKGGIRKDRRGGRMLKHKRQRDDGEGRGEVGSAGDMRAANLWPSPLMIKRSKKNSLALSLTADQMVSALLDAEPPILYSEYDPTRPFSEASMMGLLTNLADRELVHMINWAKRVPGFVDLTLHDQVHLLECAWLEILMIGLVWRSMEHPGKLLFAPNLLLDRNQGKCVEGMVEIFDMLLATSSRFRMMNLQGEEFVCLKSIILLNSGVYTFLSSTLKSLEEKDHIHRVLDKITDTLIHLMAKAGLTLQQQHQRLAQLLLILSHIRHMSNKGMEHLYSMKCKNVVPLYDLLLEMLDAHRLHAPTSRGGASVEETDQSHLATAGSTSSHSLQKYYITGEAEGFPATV
The series can be described thus: Inhibition of human ERalpha expressed in Saccharomyces cerevisiae co-expressing lacZ using CPRG as substrate incubated for 48 hrs by Colorimetric assay.

Series [10] is described as follows: Antiproliferative activity against human MCF7/BUS cells assessed as cell growth inhibition incubated for 6 days by MTT assay. The series is classed as functional, cell-based. The note with it: 144 h.
Series [11] in a line: Cytotoxicity against human RL14 cells incubated for 72 hrs by resazurin blue assay. The series is classed as toxicity, cell-based.
For series [12], the system named is NCI/ADR-RES. The series can be described thus: Cytotoxicity against human MCF7ADR cells. It is filed as functional, cell-based.
Series [13] relates to MCF7. The series is described as follows: Cytotoxicity against human MCF7 cells assessed as inhibition of cell growth in presence of paclitaxel by MTT assay. The series is classed as functional, cell-based.
A short description of series [14]: Antiproliferative activity against multidrug resistant human MDA-MB-231/TxR cells assessed as inhibition of cell growth preincubated for 24 hrs followed by taxol treatment for 24 hrs by MTT assay. It is filed as functional, cell-based.

Take `COc1cc(/C=C/c2ccc(SC)cc2)cc(OC)c1`: it took 25300 nM to reach half-maximal inhibition in series [1] (IC50).

Consider `COc1cc([C@H]2OC[C@H]3[C@@H]2CO[C@@H]3c2ccc(O)c(OC)c2)ccc1O`, for which the IC50 in [2] is 51 nM.

Take `Cc1nc(C)c(COC(=O)[C@]23CCC(C)(C)C[C@H]2C2=CC[C@@H]4[C@@]5(C)CC[C@H](OC(=O)CN)C(C)(C)[C@@H]5CC[C@@]4(C)[C@]2(C)CC3)nc1C`: in series [3], the IC50 amounted to 3200 nM.

Regarding `COc1ccc(/C(C#N)=C/c2ccc(N3CCC(O)CC3)s2)cc1OC`, the IC50 in series [4] came out at 10 nM.

For the molecule `CCNCc1ccccc1[Se][Se]c1ccccc1CNCC`, the IC50 in series [5] came to 15 nM.

Consider `CO[C@]1(CC[C@H](C)CO[C@@H]2O[C@H](CO)[C@@H](O)[C@H](O)[C@H]2O)O[C@H]2C[C@H]3[C@@H]4CC[C@@H]5C[C@@H](O[C@@H]6O[C@H](CO)[C@H](O[C@@H]7O[C@H](CO)[C@@H](O)[C@H](O[C@@H]8OC[C@@H](O)[C@H](O)[C@H]8O)[C@H]7O[C@@H]7O[C@H](CO)[C@H](O)[C@H](O)[C@H]7O)[C@H](O)[C@H]6O)CC[C@]5(C)[C@H]4CC[C@]3(C)[C@H]2[C@@H]1C`, for which the midpoint of inhibition in series [6], the IC50, lay at 5.2 nM.

In the case of `CCC(Cc1ccccc1)=C(c1ccc(OCCN2CCCC2)cc1)c1ccc(OC(=O)NCc2ccccc2)cc1`, the GI50 came to 90 nM in series [7] and 1840 nM in series [8].

In the case of `CCC(Cc1ccc(OC)cc1)=C(c1ccc(O)cc1)c1ccc(OCCCN(C)C)cc1`, the IC50 in [9] was determined as 510 nM; in series [10] it was 96 nM.

`COc1cccc2c1C(=O)c1c(O)c3c(c(O)c1C2=O)C[C@@](O)(C(=O)CO)C[C@@H]3O[C@H]1C[C@H](NC(=O)CNC(=O)Oc2ccc(C3=C(O)C(=O)C4C(O)=CC(O)=CC4O3)cc2O)[C@H](O)[C@H](C)O1` (stereo partly specified) returned an IC50 at 72 h in [11] of 5 nM.

For the molecule `O=c1cc(-c2ccc(O)cc2)oc2cc(O)cc(O)c12` [APIGENIN], the IC50 in [12] was found to be 200 nM.

Regarding `COc1cc(/C=C/C(=O)CC(=O)/C=C/c2ccc(O)c(OC)c2)ccc1O` [CURCUMIN], in [13], the IC50 stood at 88 nM.

In turn, `Oc1ccc(/C=C/c2cc(O)cc(O)c2)cc1` [RESVERATROL] yielded an IC50 in series [1] of 183000 nM.

With `CC/C(=C(\c1ccccc1)c1ccc(OCCN(C)C)cc1)c1ccccc1` [TAMOXIFEN], the IC50 in [10] was 503 nM.

`CC(C)=CCC[C@@H](C(=O)O)[C@H]1CC[C@@]2(C)C3=C(CC[C@]12C)[C@@]1(C)CC[C@H](O)C(C)(C)[C@@H]1CC3` [TRAMETENOLIC ACID]: in [14], the IC50 amounted to 102 nM.

The values are drawn from ChEMBL document CHEMBL5390238, “The mechanisms of multidrug resistance of breast cancer and research progress on related reversal agents” (Bioorg Med Chem, 2023).
